Experimental data as given in ChEMBL document CHEMBL1201862, “PubChem BioAssay data set” (2004).
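Growth conditions: 96-well plates. Treatment: test compound, 48 hours, 5 concentrations. Analysis: linear interpolation between bracketing concentrations; unreached endpoints set to highest concentration. At the GI50, growth is halved.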 The source made the active and inactive calls. Cut-off read from the data, not from the text of the source: active = GI50 up to about 1.1 µM and inactive = higher.

Columns and labels:
Assay in all cases: DTP human tumour cell line panel, 48 h
KM12 = system: KM12
HOP-92 = system: HOP-92
OVCAR-4 = system: OVCAR-4
OVCAR-3 = system: OVCAR-3
MOLT-4 = system: MOLT-4
COLO 205 = system: COLO 205
NCI-H226 = system: NCI-H226
M14 = system: M14
SW-620 = system: SW-620
DLD-1 = system: DLD-1
ACHN = system: ACHN
TK-10 = system: TK-10
CAKI-1 = system: CAKI-1
A549 = system: A549
OVCAR-5 = system: OVCAR-5
SK-MEL-28 = system: SK-MEL-28
CCRF-CEM = system: CCRF-CEM
786-0 = system: 786-0
SNB-19 = system: SNB-19

Measured: GI50

Nc1c([N+](=O)[O-])nc(Cl)c2nncn12
inactive: KM12 > 100 µM | HOP-92 > 100 µM | OVCAR-4 > 100 µM | OVCAR-3 > 100 µM | MOLT-4 > 100 µM | COLO 205 > 43 µM | NCI-H226 > 100 µM | M14 > 100 µM | SW-620 > 100 µM | DLD-1 > 58.9 µM | ACHN > 100 µM | TK-10 > 100 µM | CAKI-1 > 100 µM | A549 > 100 µM | OVCAR-5 > 100 µM | SK-MEL-28 > 100 µM | CCRF-CEM > 46 µM | 786-0 > 87.7 µM | SNB-19 > 100 µM

Clc1ccc(C2SCc3nc4ccccc4n32)cc1Cl (stereo unspecified)
inactive: KM12 11.8 µM | HOP-92 11.2 µM | OVCAR-4 13.1 µM | OVCAR-3 10.5 µM | MOLT-4 17.1 µM | COLO 205 20.3 µM | NCI-H226 25.2 µM | M14 13.2 µM | SW-620 15.3 µM | DLD-1 12.6 µM | ACHN 13 µM | TK-10 13 µM | CAKI-1 14.1 µM | A549 13.4 µM | OVCAR-5 10.5 µM | SK-MEL-28 12.5 µM | CCRF-CEM 23.7 µM | 786-0 13.8 µM | SNB-19 10.6 µM

C[C@]12CCc3nn(-c4ccccc4)nc3C1CC[C@@H]1C2CC[C@]2(C)C(=O)CCC12 (stereo partly specified)
inactive: KM12 > 100 µM | HOP-92 > 100 µM | OVCAR-4 > 100 µM | OVCAR-3 > 100 µM | MOLT-4 > 100 µM | COLO 205 > 100 µM | NCI-H226 > 100 µM | M14 > 100 µM | SW-620 > 100 µM | DLD-1 93.3 µM | ACHN > 100 µM | TK-10 > 100 µM | CAKI-1 > 100 µM | A549 > 100 µM | OVCAR-5 > 100 µM | SK-MEL-28 > 100 µM | CCRF-CEM > 100 µM | 786-0 > 100 µM | SNB-19 > 100 µM

CN1COc2c(n(C)c(=O)[nH]c2=O)C1
inactive: KM12 > 100 µM | HOP-92 > 100 µM | OVCAR-4 > 100 µM | OVCAR-3 > 100 µM | MOLT-4 > 100 µM | COLO 205 59 µM | NCI-H226 > 100 µM | M14 > 100 µM | SW-620 38.6 µM | DLD-1 > 100 µM | ACHN > 100 µM | TK-10 > 100 µM | CAKI-1 > 47.8 µM | A549 > 100 µM | OVCAR-5 > 100 µM | SK-MEL-28 > 100 µM | CCRF-CEM > 61.7 µM | 786-0 > 100 µM | SNB-19 > 100 µM
